Reference: US12016880B2, “Halogen treatment of heart attack and ischemic injury” (Fred Hutchinson Cancer Center, priority 2014, dated 2024)

Tests used:
[1] = test system: mouse model of heart attack; assay: Mouse LAD ligation, NaI i.v. pretreatment before ischemia, infarct size by morphometry; assay type: in vivo
Experimental: To determine whether pretreatment with NaI prior to heart attack improves heart attack outcome, open chest ligation experiments were performed in mice where either vehicle (saline) or test agent (NaI) was injected into the femoral vein of each mouse either 5 minutes or 48 hours before initiation of ischemia. Open chest ligation of the left descending coronary artery (LAD ligation) was then performed, and the heart muscle was reperfused by releasing the ligature at 60 minutes post initiation of ischemia. After 2 hours of reperfusion, infarct size was measured by morphometry as described above (FIG. 3). Three groups of mice were utilized in this study, including a saline vehicle group (n=1) and two test groups that received 1 mg/kg NaI 5 minutes before LAD ligation (n=4) or 1 mg/kg NaI 48 hours before LAD ligation (n=1).

[2] = test system: mouse model of heart attack; assay: Mouse LAD ligation ischemia/reperfusion, NaI i.v. before reperfusion, infarct size by morphometry; assay type: in vivo
Experimental: In order to examine the effect of NaI on myocardial infarct size in a mouse model of heart attack, open chest ligation of the left descending coronary artery (LAD ligation) was performed in mice. At 55 minutes post initiation of ischemia, either vehicle (saline) or test agent (NaI) was injected into the femoral vein of each mouse. The heart muscle was reperfused by releasing the ligature at 60 minutes post initiation of ischemia. After 2 hours of reperfusion, infarct size was measured by morphometry (FIG. 1). Five groups of mice were utilized in this study, including a saline vehicle group (n=3) and […] test groups that received 0.25 mg/kg (n=4), 0.5 mg/kg (n=5), 1 mg/kg (n=5), or 2 mg/kg (n=6) of NaI. To be certain that all animals in the study were treated in a similar way, the area at risk (AAR) as a proportion of the left ventricle was determined (FIG. 1). Area at risk (AAR) and infarct size (Inf) were measured using the specific dyes TTC and Evans blue. Processed images were generated in an unbiased way by setting constant thresholds and allowing Photoshop® to generate the images that were quantitated to generate the data presented in FIG. 1.
An additional test was performed under the same conditions but using an expanded range of concentration of NaI.

[3] = test system: peripheral blood mononuclear cells (PBMC); assay: Mixed lymphocyte culture, tritiated thymidine incorporation; assay type: cell-based; conditions: 5 days culture, 18 hours pulse
Experimental: In particular embodiments, immunosuppression induced by halogen or chalcogenide compounds is assessed by measuring T cell proliferation, e.g., in response to activated antigen presenting cells. Essentially a mixed lymphocyte reaction, this assay exploits that fact that T cell exposure to presented antigens result in T cell activation and proliferation, as well as supportive increases in DNA synthesis. […] Irradiation results in the presentation of numerous antigens to antigen presenting cells, thus the irradiated cells serve as potent activators of T cells. By mixing the irradiated cells with the non-irradiated cells, strong T cell proliferation will occur. This proliferation can be measured using any proliferation assay, as would be commonly known to the skilled artisan. In one embodiment, proliferation is assessed by measuring DNA synthesis. Mixed PBMC were cultured in the presence or absence of halogen or chalcogenide compounds for 5 days, and then pulsed with tritiated thymidine for 18 hours to label newly synthesized DNA. The degree of labeling is directly correlated with the degree of T cell activation, thus low levels of labeling correlate with immunosuppression.
PBMC were either irradiated with 3500 rads (Ax and Bx) or not (A and B). […] Cells were lysed, the lysate filtered to trap the DNA on the filter and the filters counted in a scintillation counter. […]

[4] = test system: mouse model of heart attack; assay: Transthoracic echocardiography of left ventricle after myocardial ischemia and reperfusion; assay type: in vivo; conditions: FIG. 4; single intravenous administration two days prior to ligation-induced ischemia
Experimental: For each of the sets of bars for Ejection Fraction and Fractional Shortening, the bars from left to right correspond to the bars from top to bottom shown in the legend.
In vivo transthoracic echocardiography of the left ventricle (LV) using a 30-MHz RMV scanhead interfaced with a Vevo 770 (Visualsonics) was performed, and two-dimensional echocardiography images were obtained. LV end-diastolic diameter (EDD) and LV end-systolic diameter (ESD) were measured at a day before for a baseline and one and 4 weeks after myocardial ischemia and reperfusion. LV percent fractional shortening (FS) and LV ejection fraction (EF) were calculated.

[5] = test system: mouse model of heart attack; assay: Mouse LAD ligation after two days of drinking water containing NaI, infarct size; assay type: in vivo
Experimental: In order to examine the effect of pre-treatment with drinking water containing NaI on myocardial infarct size in a mouse model of heart attack, three groups of mice were provided with drinking water containing various concentrations of iodide to achieve dosages of 0.07 mg/kg/day (normal drinking water) for the first group; 0.77 mg/kg/day for the second group; or 7.07 mg/kg/day for the third group, for two days immediately prior to open chest ligation of the left descending coronary artery (LAD ligation) to initiate ischemia. A fourth group of mice was provided with normal drinking water for the two days prior to the initiation of ischemia, but at 55 minutes post initiation of ischemia, either vehicle (saline) or test agent (NaI) was injected into the femoral vein of each of these mice. […] After two hours of reperfusion, infarct size was measured by morphometry (FIG. 1). To be certain that all animals in the study were treated in a similar way, the area at risk (AAR) as a proportion of the left ventricle was determined (FIG. 8). Area at risk (AAR) and infarct size (Inf) were measured using the specific dyes TTC and Evans blue. Processed images were generated in an unbiased way by setting constant thresholds and allowing Photoshop® to generate the images that were quantitated to generate the data presented in FIG. 8.

[6] = test system: rat model of acute myocardial infarction (AMI); assay: Rat acute myocardial infarction (30 min LAD occlusion), plasma cTpnI and infarct size; assay type: in vivo; conditions: 1 mg/kg i.v. bolus, vs placebo
Experimental: Male CD®, IGS Rats (300-450 g) were subjected to 30 minutes of LAD occlusion followed by 24-30 hrs of reperfusion. 200-400 uL of blood was drawn at 4 and 24¬30 hrs post-reperfusion for plasma cTpnI measurements by EIA. After the 24-30 hr blood draw, the LAD was re-occluded, and the heart was excised following i.v. administration of Evans Blue. The hearts were frozen overnight, sectioned, and stained with triphenyl tetrazolium chloride for subsequent blinded infarct analysis.
Rats were anesthetized with a ketamine/xylazine mixture (100 mg/kg and 10 mg/kg, respectively) and maintained under 2-3% isoflurane in 100% medical oxygen after intubation with a 16 gauge angiocatheter sheath (Terumo® Surflo i.v. catheter, 16G×2″, VWR Cat. #TESR-OX1651CA). Animals were ventilated using a Harvard Apparatus Model 683 small animal ventilator equipped with a 5 cc cylinder at a tidal volume of 1.5-2.0 mL/stroke and a respiratory rate of 105 strokes/min. With the rat lying on its right side, animal fur was removed from the surgical area with clippers and then cleaned with alcohol pads. The heart beat was visualized through the chest wall and a dorsoventral incision in the left chest wall was made directly over the beating heart. The underlying fascia was dissected away to reveal the ribs and intercostal muscles. […]

[7] = test system: mouse model of chronic heart failure; assay: Mouse chronic heart failure after LAD ligation, iodide in drinking water, echocardiography; assay type: in vivo; conditions: drinking water 0.77 mg/kg/day iodide from LAD ligation for 12 weeks vs normal drinking water
Experimental: In order to examine the effect of drinking water containing NaI on chronic heart failure following heart attack in a mouse model, two groups of mice were provided with drinking water lacking iodide or drinking water containing 0.77 mg/kg/day iodide starting immediately following open chest ligation of the left descending coronary artery (LAD ligation) to initiate ischemia, and continuing until the end of the study, which lasted 12 weeks. Prior to the LAD ligation and at 1 week, 2 weeks, 4 weeks, 8 weeks, and 12 weeks following the LAD ligation, mice were examined by echocardiography to determine their left ventricle ejection fraction and their left ventricle fractional shortening.

[8] = Oxidation of selenide in water or glutathione solution (visual darkening); assay type: physicochemical; conditions: 50 mM selenide in 150 mM GSH vs in water, 8 minutes immediately following preparation
Experimental: The photographs show samples of 50 mM selenide in either water (FIG. 5A) or 150 mM GSH (FIG. 5B) over the eight minutes immediately following preparation.

hypoxic injuries = conditions: mice and rats; PCT Publication No. WO2005/041655; cited from earlier work

Molecule: [I-].[Na+] [NaI, sodium iodide]
- infarct size (morphometry) ([1]; 1 mg/kg NaI i.v. 5 minutes or 48 hours before LAD ligation, vs saline group (FIG. 3)): statistically significant decreases in infarct size
- reduction in infarct size in comparison to vehicle alone ([1]; pre-treatment 1 mg/kg NaI 5 minutes or 48 hours before LAD ligation): approximately 70%
- infarct size (morphometry) ([2]; NaI 0.25, 0.5, 1 or 2 mg/kg into femoral vein at 55 minutes of ischemia, 2 hours of reperfusion, vs saline group (FIG. 1)): statistically significant decreases in infarct size
- infarct size (morphometry) ([2]; additional test, same conditions, expanded range of concentration of NaI, vs saline group (FIG. 2)): statistically significant decreases in infarct size
- reduction in infarct size in comparison to vehicle alone ([2]; each dosage tested (0.25-2 mg/kg NaI i.v. at 55 minutes of ischemia)): approximately 70%
- tritiated thymidine labeling (DNA synthesis) ([3]; highest concentration): reduced the amount of labeling
- protective effect by echocardiography (LV ejection fraction, fractional shortening) [4]: protective effect of NAI was confirmed by echocardiography
- infarct size (morphometry) ([5]; drinking water 0.77 or 7.07 mg/kg/day for two days prior to LAD ligation vs normal water (0.07 mg/kg/day)): statistically significant decreases in infarct size
- decrease in infarct size compared with iodide i.v. at the time of reperfusion ([5]; drinking water pre-treatment for two days): somewhat less or comparable
- plasma troponin levels (cTpnI) ([6]; 4 and 24 hr): consistently lower
- infarct size ([6]; 24 hrs): smaller
- left ventricle ejection fraction [7]: statistically significant increases
- left ventricle fractional shortening [7]: statistically significant increases

Molecule: selenide
- tritiated thymidine labeling (DNA synthesis) ([3]; all concentrations): reduced the labeling to control levels
- oxidation of selenide (dark oxidized forms) [8]: reduced levels of oxidation at each time point

Molecule: sulfide
- metabolism and protection from hypoxic injuries (hypoxic injuries): can reduce metabolism and protect mice and rats from hypoxic injuries
